Assay results taken from BindingDB's records for patent US20250353858 (BEONE MEDICINES I GMBH, 2025).

Legend:
[1] = molecular target: Diacylglycerol kinase zeta (Homo sapiens, UniProt Q13574); assay: Biochemical DGK IC50 Assay
Description: (§1) Enzymatic reactions of DGKζ, DGKα and DGKδ were performed using ADP-Glo assay with lipid micelle substrate. […] Full length DGKα (D21-10BG, SignalChem) and full length DGKδ (D23-10G, SignalChem) were purchased. […] The resulted product was resuspended in buffer containing 25 mM HEPES pH 7.0, 0.5 mM EDTA and 160 mM Octyl β-D glucopyranoside by vigorous mixing and ultrasonic (IID, Scientz).Final concentration in reaction Enzyme Enzyme (nM) ATP (μM) DAG (μM)DGKα 7.5 140 80DGKδ 10 140 80DGKζ 0.5 140 80The inhibition activities testing for the compound disclosed herein were carried out at room temperature in assay buffer containing 50 mM HEPES, 10 mM MgCl2, 0.01% BSA, 0.1 mM Na3VO4, 0.005% Tween-20 and 0.01 mM CaCl2. […] 3 μL 2× enzyme solution was added to wells. […] After 1 hour reaction, 5 μL ADP-Glo reagent (Promga V9101) was added and incubated for 40 minutes. 10 μL Kinase Detection reagent was added and incubated for 30 minutes. Luminescence was measured on a microplate reader (PHERAstar FSX, BMG labtech). The IC50s are calculated based on inhibition of enzyme activity in the presence of increasing concentrations of compounds.

[2] = molecular target: Diacylglycerol kinase alpha (Homo sapiens, UniProt P23743); assay: Biochemical DGK IC50 Assay
Description: as §1

Chain of Diacylglycerol kinase alpha (P23743 whole entry): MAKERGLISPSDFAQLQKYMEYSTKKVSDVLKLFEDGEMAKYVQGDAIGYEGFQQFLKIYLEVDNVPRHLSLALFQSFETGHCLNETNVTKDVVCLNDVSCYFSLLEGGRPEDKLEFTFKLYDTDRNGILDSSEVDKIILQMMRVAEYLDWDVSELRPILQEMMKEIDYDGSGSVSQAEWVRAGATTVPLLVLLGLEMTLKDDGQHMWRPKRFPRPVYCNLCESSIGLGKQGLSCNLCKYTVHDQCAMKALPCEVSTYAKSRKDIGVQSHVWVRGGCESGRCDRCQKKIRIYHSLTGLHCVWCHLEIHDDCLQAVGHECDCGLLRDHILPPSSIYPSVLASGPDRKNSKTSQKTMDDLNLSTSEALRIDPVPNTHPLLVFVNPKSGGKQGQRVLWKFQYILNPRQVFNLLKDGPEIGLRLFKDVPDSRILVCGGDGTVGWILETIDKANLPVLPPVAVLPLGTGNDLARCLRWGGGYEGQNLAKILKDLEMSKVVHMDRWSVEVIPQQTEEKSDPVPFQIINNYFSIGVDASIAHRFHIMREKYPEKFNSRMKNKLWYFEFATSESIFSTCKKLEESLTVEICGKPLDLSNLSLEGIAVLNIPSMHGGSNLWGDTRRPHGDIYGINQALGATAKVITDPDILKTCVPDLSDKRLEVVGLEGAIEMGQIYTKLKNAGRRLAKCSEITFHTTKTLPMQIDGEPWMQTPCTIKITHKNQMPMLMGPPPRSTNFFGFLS
Chain of Diacylglycerol kinase zeta (Q13574 as listed by the source): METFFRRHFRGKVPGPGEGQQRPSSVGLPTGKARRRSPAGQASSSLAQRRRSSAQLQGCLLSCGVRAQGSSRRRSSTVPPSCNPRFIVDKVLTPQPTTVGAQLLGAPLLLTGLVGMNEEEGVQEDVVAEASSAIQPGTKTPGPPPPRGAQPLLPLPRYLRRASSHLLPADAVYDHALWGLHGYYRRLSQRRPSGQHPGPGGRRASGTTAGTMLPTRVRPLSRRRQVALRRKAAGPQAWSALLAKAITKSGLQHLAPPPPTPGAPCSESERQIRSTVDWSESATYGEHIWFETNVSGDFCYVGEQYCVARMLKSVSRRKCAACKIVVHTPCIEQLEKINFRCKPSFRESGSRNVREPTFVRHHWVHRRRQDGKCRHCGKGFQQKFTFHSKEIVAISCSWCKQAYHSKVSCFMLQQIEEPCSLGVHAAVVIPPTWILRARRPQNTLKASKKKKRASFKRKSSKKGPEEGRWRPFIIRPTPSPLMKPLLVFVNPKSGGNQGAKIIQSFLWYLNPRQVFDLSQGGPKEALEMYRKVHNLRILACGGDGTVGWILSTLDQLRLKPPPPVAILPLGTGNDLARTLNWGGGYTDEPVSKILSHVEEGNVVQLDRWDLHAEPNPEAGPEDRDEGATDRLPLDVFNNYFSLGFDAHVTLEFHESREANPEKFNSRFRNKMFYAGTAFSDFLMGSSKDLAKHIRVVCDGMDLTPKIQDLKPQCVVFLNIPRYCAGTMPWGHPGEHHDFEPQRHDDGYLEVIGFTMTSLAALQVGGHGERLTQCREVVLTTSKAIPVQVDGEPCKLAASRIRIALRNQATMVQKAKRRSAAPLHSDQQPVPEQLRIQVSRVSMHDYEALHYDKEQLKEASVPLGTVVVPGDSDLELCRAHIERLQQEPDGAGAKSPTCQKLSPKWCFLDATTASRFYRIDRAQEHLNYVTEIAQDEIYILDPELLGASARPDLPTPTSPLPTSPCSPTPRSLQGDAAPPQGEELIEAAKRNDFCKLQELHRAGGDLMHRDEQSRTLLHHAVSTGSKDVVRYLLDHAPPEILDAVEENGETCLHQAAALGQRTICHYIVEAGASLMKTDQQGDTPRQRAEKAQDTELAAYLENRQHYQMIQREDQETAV

Question: Which IC50 [1] does the source give for `CC(c1ccc2c(n1)OC(C)(C)CO2)N1C[C@H](C)N(c2cc(=O)n(C)c3cn(CC#N)nc23)C[C@H]1C` (stereo partly drawn) [2-(7-((2S,5R)-4-(1-(3,3-dimethyl-2,3-dihydro-[1,4]dioxino[2,3-b]pyridin-6-yl)ethyl)-2,5-dimethylpiperazin-1-yl)-4-methyl-5-oxo-4,5-dihydro-2H-pyrazolo[4,3-b]pyridin-2-yl)acetonitrile] here?
Answer: The IC50 was 0.075 µM.

Question: What about the IC50 [2] of the same compound?
Answer: The IC50 was 61.5 µM.

Question: `C[C@@H]1CC(c2cc(=O)n(C)c3cc(CC#N)nn23)CCN1[C@H](C)c1ccc2nccnc2c1` (stereo partly drawn) [US20250353858, Compound A33b] was tested. Which IC50 [2] did it give?
Answer: Its IC50 is > 10 µM.
